According to US20120329787A1, “FUNGICIDAL PYRANONES AND OXAZINONES” (E.I. DU PONT DE NEMOURS AND COMPANY, priority 2011, published 2012):

Key:
Format in all cases: in vivo
Septoria tritici = assay: Test F: wheat leaf blotch, spray on wheat seedlings the day before inoculation; settings: 200 ppm test suspension; for pest or weed control at 200 ppm: Zymoseptoria tritici, 504 h, read-out: Test F rating (100 = 100% disease control, 0 = no disease control)
Outline: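 Wheat seedlings sprayed to run-off with 200 ppm (≈500 g/ha) or 40 ppm suspension in acetone/water with 250 ppm Trem 014. Next day inoculated with Septoria tritici spores, held 48 h saturated at 24° C, then 19 days at 20° C before visual disease rating.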

[1] = tested on: Erysiphe graminis f. sp. tritici; assay: Test I: wheat powdery mildew, spray on wheat seedlings the day before inoculation; settings: 200 ppm test suspension; for pest or weed control at 200 ppm: Blumeria graminis, 168 h, read-out: Test I rating (100 = 100% disease control, 0 = no disease control)
Outline: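 Wheat seedlings sprayed to run-off with compound at 200 ppm (40 ppm where marked; 200 ppm ≈ 500 g/ha) in acetone/water with 250 ppm surfactant. Inoculated next day with E. graminis spore dust; visual disease rating after 7 days at 20° C.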

Botrytis cinerea = assay: Test A: tomato Botrytis, spray on tomato seedlings the day before inoculation; settings: 200 ppm test suspension; for pest or weed control at 200 ppm: Botrytis cinerea, 120 h, read-out: Test A rating (100 = 100% disease control, 0 = no disease control)
Outline: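 Tomato seedlings sprayed to run-off with compound suspension (200 ppm, ≈500 g/ha; some at 40 ppm) in acetone/water with 250 ppm Trem 014, inoculated next day with Botrytis cinerea spores. Held 48 h saturated at 20 °C, then 3 days at 24 °C; disease rated visually.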

Septoria nodorum = assay: Test E: Septoria glume blotch, spray on wheat seedlings the day before inoculation; settings: 200 ppm test suspension; for pest or weed control at 200 ppm: Parastagonospora nodorum, 264 h, read-out: Test E rating (100 = 100% disease control, 0 = no disease control)
Outline: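 Compounds in acetone/water (50/50) with 250 ppm Trem 014 surfactant, sprayed to run-off on wheat seedlings the day before Septoria nodorum inoculation. Tested at 200 ppm (equivalent to 500 g/ha) unless marked 40 ppm.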

Alternaria solani = assay: Test B: tomato early blight, spray on tomato seedlings the day before inoculation; settings: 200 ppm test suspension; for pest or weed control at 200 ppm: Alternaria solani, 168 h, read-out: Test B rating (100 = 100% disease control, 0 = no disease control)
Outline: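 Tomato seedlings sprayed to run-off with 200 ppm suspension (40 ppm where asterisked), inoculated next day with Alternaria solani spores. Kept 48 h at 27 °C in saturated atmosphere, then 5 days at 20 °C before visual disease rating.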

[2] = tested on: Puccinia recondita f. sp. tritici; assay: Test G: wheat leaf rust, spray on wheat seedlings after inoculation (curative); settings: 200 ppm test suspension, sprayed after inoculation; for pest or weed control at 200 ppm: Puccinia recondita, 96 h, read-out: Test G rating (100 = 100% disease control, 0 = no disease control)
Outline: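 Curative test: wheat seedlings inoculated with P. recondita spores, held 24 h saturated at 20 °C then 2 days at 20 °C, then sprayed to run-off with compound suspension (200 ppm ≈ 500 g/ha; asterisk = 40 ppm) in acetone/water with 250 ppm surfactant. Visual disease rating after 4 further days at 20 °C.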

[3] = tested on: Puccinia recondita f. sp. tritici; assay: Test H: wheat leaf rust, spray on wheat seedlings the day before inoculation; settings: 200 ppm test suspension, sprayed before inoculation; for pest or weed control at 200 ppm: Puccinia recondita, 168 h, read-out: Test H rating (100 = 100% disease control, 0 = no disease control)
Outline: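 Wheat seedlings sprayed to run-off with compound suspensions (acetone/water with surfactant; 200 ppm ≈ 500 g/ha, or 40 ppm), inoculated next day with rust spores. Plants kept 24 h in saturated atmosphere at 20 °C, then 6 days in a 20 °C growth chamber before visual disease rating.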

Compound: COc1cc(OC)cc(-c2c(-c3ccc(F)cc3F)c(C)oc(=O)c2C)c1 [Compound 48, 5-(2,4-difluorophenyl)-4-(3,5-dimethoxyphenyl)-3,6-dimethyl-2H-pyran-2-one]
- pest or weed control at 200 ppm (Septoria tritici): 100%
- pest or weed control at 200 ppm [1]: 100%
- pest or weed control at 200 ppm (Botrytis cinerea): 100%
- pest or weed control at 200 ppm (Septoria nodorum): 99%
- pest or weed control at 200 ppm (Alternaria solani): 97%
- pest or weed control at 200 ppm [2]: 100%
- pest or weed control at 200 ppm [3]: 100%

Compound: COc1cc(F)c(-c2c(-c3cc(OC)cc(OC)c3Cl)c(C)oc(=O)c2C)c(F)c1 [Compound 49]
- Test F rating (100 = 100% disease control, 0 = no disease control) (Septoria tritici): 100%
- Test I rating (100 = 100% disease control, 0 = no disease control) [1]: 99%
- Test A rating (100 = 100% disease control, 0 = no disease control) (Botrytis cinerea): 100%
- Test E rating (100 = 100% disease control, 0 = no disease control) (Septoria nodorum): 99%
- Test B rating (100 = 100% disease control, 0 = no disease control) (Alternaria solani): 100%
- Test G rating (100 = 100% disease control, 0 = no disease control) [2]: 100%
- Test H rating (100 = 100% disease control, 0 = no disease control) [3]: 100%

Compound: COc1cc(OC)cc(-c2c(-c3c(F)cccc3F)c(C)oc(=O)c2C)c1 [Compound 51]
- Test F rating (100 = 100% disease control, 0 = no disease control) (Septoria tritici): 100%
- Test I rating (100 = 100% disease control, 0 = no disease control) [1]: 96%
- Test A rating (100 = 100% disease control, 0 = no disease control) (Botrytis cinerea): 100%
- Test E rating (100 = 100% disease control, 0 = no disease control) (Septoria nodorum): 0%
- Test B rating (100 = 100% disease control, 0 = no disease control) (Alternaria solani): 0%
- Test G rating (100 = 100% disease control, 0 = no disease control) [2]: 75%
- Test H rating (100 = 100% disease control, 0 = no disease control) [3]: 100%

Compound: COc1cc(OC)c(Cl)c(-c2c(-c3c(F)cccc3F)c(C)oc(=O)c2C)c1Cl [Compound 53]
- Test F rating (100 = 100% disease control, 0 = no disease control) (Septoria tritici): 47%
- Test I rating (100 = 100% disease control, 0 = no disease control) [1]: 0%
- Test A rating (100 = 100% disease control, 0 = no disease control) (Botrytis cinerea): 61%
- Test E rating (100 = 100% disease control, 0 = no disease control) (Septoria nodorum): 0%
- Test B rating (100 = 100% disease control, 0 = no disease control) (Alternaria solani): 0%
- Test G rating (100 = 100% disease control, 0 = no disease control) [2]: 0%
- Test H rating (100 = 100% disease control, 0 = no disease control) [3]: 88%

Compound: COc1cc(OC)c(Cl)c(-c2c(-c3ccc(F)cc3Cl)c(C)oc(=O)c2C)c1 [Compound 54, 4-(2-chloro-3,5-dimethoxyphenyl)-5-(2-chloro-4-fluorophenyl)-3,6-dimethyl-2H-pyran-2-one]
- pest or weed control at 200 ppm (Septoria tritici): 100%
- pest or weed control at 200 ppm [1]: 100%
- pest or weed control at 200 ppm (Botrytis cinerea): 100%
- pest or weed control at 200 ppm (Septoria nodorum): 100%
- pest or weed control at 200 ppm (Alternaria solani): 96%
- pest or weed control at 200 ppm [2]: 99%
- pest or weed control at 200 ppm [3]: 100%

Compound: COc1cc(OC)cc(-c2c(-c3c(F)cc(F)cc3F)c(C)oc(=O)c2C)c1 [Compound 55, 4-(3,5-dimethoxyphenyl)-3,6-dimethyl-5-(2,4,6-trifluorophenyl)-2H-pyran-2-one]
- pest or weed control at 200 ppm (Septoria tritici): 100%
- pest or weed control at 200 ppm [1]: 100%
- pest or weed control at 200 ppm (Botrytis cinerea): 77%
- pest or weed control at 200 ppm (Septoria nodorum): 99%
- pest or weed control at 200 ppm (Alternaria solani): 100%
- pest or weed control at 200 ppm [2]: 100%
- pest or weed control at 200 ppm [3]: 100%

Compound: COc1cc(OC)cc(-c2cc(=O)oc(C)c2-c2ccc(F)cc2Cl)c1 [Compound 56]
- Test F rating (100 = 100% disease control, 0 = no disease control) (Septoria tritici): 100%
- Test I rating (100 = 100% disease control, 0 = no disease control) [1]: 100%
- Test A rating (100 = 100% disease control, 0 = no disease control) (Botrytis cinerea): 94%
- Test E rating (100 = 100% disease control, 0 = no disease control) (Septoria nodorum): 99%
- Test B rating (100 = 100% disease control, 0 = no disease control) (Alternaria solani): 99%
- Test G rating (100 = 100% disease control, 0 = no disease control) [2]: 100%
- Test H rating (100 = 100% disease control, 0 = no disease control) [3]: 100%
